# Experiments:
# [1] = tested on: HeLa cells; assay: Tumor volume of subcutaneously transplanted HeLa cells in SCID/SCID mice; format: in vivo; conditions: for Tumor volume: 5 mg/kg intraperitoneally every day for two weeks starting day 7; for Increase in the size of the tumor tissue compared with the control group: HeLa tumor-bearing SCID/SCID mice, 5 mg/kg intraperitoneally every day for two weeks, result in words
# Experimental: First, 0.1 mL samples of an HeLa cell solution with a concentration of 1.0×10^7 cells/mL were transplanted beneath the skin of SCID/SCID (immunodeficient) mice. Starting 7 days after the HeLa cell transplantation, PBS (control group), leucine (5 mg/kg mouse bodyweight) or trifluoroleucine (5 mg/kg mouse bodyweight) was administered intraperitoneally every day for two weeks. The growth of the tumor tissue was observed over time from the time of HeLa transplantation, and the tumor volume (mm^3) was calculated. The tumor volume (mm^3) was calculated from the major diameter (mm) of the tumor tissue and the minor diameter (mm) of the tumor tissue using the formula shown below.
# With the exceptions of using monofluoroisoleucine or 5-fluoro-5-methyl-norleucine (CAS RN: 1361228-49-0) instead of the trifluoroleucine, and starting the administration of the PBS, 5-fluoro-5-methyl-norleucine or monofluoroisoleucine 11 days after rather than 7 days after the HeLa cell transplantation, the same procedure as (1) above was used to measure the volume (mm^3) of the tumor formed by the subcutaneously transplanted HeLa cells over time.
# (§1) First, 0.1 mL samples of an HeLa cell solution with a concentration of 1.0×10^7 cells/mL were transplanted beneath the skin of SCID/SCID (immunodeficient) mice. Starting 7 days after the HeLa cell transplantation, PBS (control group), glutamine (Gln) (5 mg/kg mouse bodyweight), (2S,4S)Gln(1F) (5 mg/kg mouse bodyweight) or (2S,4R)Gln(1F) (5 mg/kg mouse bodyweight) was administered intraperitoneally every day for two weeks. The growth of the tumor tissue was observed over time from the time of HeLa cell transplantation, and the tumor volume (mm^3) was calculated. The tumor volume (mm^3) was determined in the same manner as that described in Example 2.
# as §1, with “mouse bodyweight), or di-F-Gln(F)” for “mouse bodyweight), (2S,4S)Gln(1F) (5 mg/kg mouse bodyweight) or (2S,4R)Gln(1F)”, “bodyweight), or di-F-Gln(F) (5 mg/kg” for “bodyweight) or (2S,4R)Gln(1F) (5 mg/kg”, “of HeLa transplantation, and” for “of HeLa cell transplantation, and”
# [2] = tested on: HeLa cells; assay: SRB assay, relative cell proliferation rate of HeLa cells; format: cell-based
# Text: (§2) HeLa cells and PANC-1 cells were used as the cancer cells. Both these cells were obtained from ATCC. Further, NHDF cells obtained from Lonza Group Ltd. were used as control non-cancer cells. The culture mediums used were Dulbecco's Modified Eagle Medium (D-MEM, manufactured by FUJIFILM Wako Pure Chemical Corporation) to which 10% FBS had been added (hereinafter also referred to as the “normal medium”), a medium prepared by removing leucine from D-MEM and adding 10% FBS (hereinafter also referred to as the “Leu-removed medium”), and a medium prepared by removing valine from D-MEM and adding 10% FBS (hereinafter also referred to as the “Val-removed medium”).
# (§3) The culture cells were inoculated into a 96-well culture plate at a concentration of 3×10^3 cells/well, and following adhesion, were cultured for 24, 48 or 72 hours in the normal medium, the Leu-removed medium or Val-removed medium, or a medium prepared by adding the fluorine-containing amino acid to the Leu-removed medium or Val-removed medium in an amount sufficient to achieve a final concentration of 0.8 mM. Following culturing, the cell proliferation rate was measured by SRB assay. As a control, the cell proliferation rate was measured in a similar manner for cells having a culture time of 0 hours.
# (§4) The SRB assays were conducted in the following manner. Following cell culturing, the medium was removed, and 10% (wt/vol) of trichloroacetic acid was added to fix the cells. Subsequently, the fixed cells were washed three times with tap water, and then stained by adding a solution containing 0.4% (wt/vol) of sulforhodamine B dissolved in 1% acetic acid. Following subsequent washing three times with a 1% acetic acid solution, a 10 mM Tris solution was added, and the light absorbance at 540 nm was measured. The 540 nm absorbance value for each sample was used to indicate the cell quantity, and for each sample, the relative cell proliferation rate (%) at a culture time of X hours was determined using the formula below.
# (§5) SRB assays were conducted in the same manner as Example 1 with the exceptions of using a medium prepared by removing glutamine from D-MEM and adding 10% FBS (hereinafter also referred to as the “Gln-removed medium”) as the culture medium instead of the Leu-removed medium, using monofluoroglutamine ((2S,4S)Gln(1F) or (2S,4R)Gln(1F)) as the fluorine-containing amino acid, and altering the amount of monofluoroglutamine added to the Gln-removed medium to an amount sufficient to achieve a final concentration of 4 mM.
# (§6) SRB assays were conducted in the same manner as Example 1 with the exceptions of using the Gln-removed medium as the culture medium instead of the Leu-removed medium, using difluoroglutamine as the fluorine-containing amino acid, and altering the amount of difluoroglutamine added to the Gln-removed medium to an amount sufficient to achieve a final concentration of 4 mM.
# [3] = tested on: NHDF cells; assay: SRB assay, relative cell proliferation rate of NHDF cells (control non-cancer cells); format: cell-based
# Text: as §2, §3, §4, §5
# [4] = tested on: PANC-1 cells; assay: SRB assay, relative cell proliferation rate of PANC-1 cells; format: cell-based
# Text: as §2, §3, §4, §5, §6
# [5] = 7 days since HeLa cell transplantation
# [6] = 14 days since HeLa cell transplantation
# [7] = 21 days since HeLa cell transplantation
# [8] = Gln-removed medium + 4 mM amino acid, culture time 24 h
# [9] = Gln-removed medium + 4 mM amino acid, culture time 48 h
# [10] = Gln-removed medium + 4 mM amino acid, culture time 72 h
# [11] = Leu-removed medium + 0.8 mM amino acid, culture time 24 h
# [12] = Leu-removed medium + 0.8 mM amino acid, culture time 48 h
# [13] = Leu-removed medium + 0.8 mM amino acid, culture time 72 h, hydrochloride
smiles,measurement,setting,value
"NC(=O)[C@@H](F)C[C@H](N)C(=O)O [(2S,4S)-Gln(1F)]",Tumor volume,[1]; [5],72.1 mm^3
same,Tumor volume,[1]; 9 days since HeLa cell transplantation,96.9 mm^3
same,Tumor volume,[1]; 11 days since HeLa cell transplantation,149.0 mm^3
same,Tumor volume,[1]; [6],207.1 mm^3
same,Tumor volume,[1]; 16 days since HeLa cell transplantation,242.3 mm^3
same,Tumor volume,[1]; 18 days since HeLa cell transplantation,357.2 mm^3
same,Tumor volume,[1]; [7],439.9 mm^3
same,Increase in the size of the tumor tissue compared with the control group,[1],dramatically inhibited
same,Relative cell proliferation rate of HeLa cells,[2]; [8],29.2%
same,Relative cell proliferation rate of HeLa cells,[2]; [9],32.1%
same,Relative cell proliferation rate of HeLa cells,[2]; [10],25.0%
same,Relative cell proliferation rate of NHDF cells,[3]; [8],157.4%
same,Relative cell proliferation rate of NHDF cells,[3]; [9],129.4%
same,Relative cell proliferation rate of NHDF cells,[3]; [10],82.9%
same,Relative cell proliferation rate of PANC-1 cells,[4]; [8],31.5%
same,Relative cell proliferation rate of PANC-1 cells,[4]; [9],27.3%
same,Relative cell proliferation rate of PANC-1 cells,[4]; [10],25.7%
"CC(CC(N)C(=O)O)C(F)(F)F.Cl (centres unmarked) [Leu(3F), 2-amino-5,5,5-trifluoro-4-methylpentanoic acid hydrochloride]",Tumor volume,[1]; [5],135.6 mm^3
same,Tumor volume,[1]; 10 days since HeLa cell transplantation,169.4 mm^3
same,Tumor volume,[1]; 12 days since HeLa cell transplantation,204.1 mm^3
same,Tumor volume,[1]; [6],200.6 mm^3
same,Tumor volume,[1]; 17 days since HeLa cell transplantation,315.3 mm^3
same,Tumor volume,[1]; 19 days since HeLa cell transplantation,460.2 mm^3
same,Tumor volume,[1]; [7],704.0 mm^3
same,Increase in the size of the tumor tissue compared with the control group,[1],dramatically inhibited
same,Relative cell proliferation rate of HeLa cells,[2]; [11],78.5%
same,Relative cell proliferation rate of HeLa cells,[2]; [12],91.6%
same,Relative cell proliferation rate of HeLa cells,[2]; [13],89.5%
same,Relative cell proliferation rate of NHDF cells,[3]; [11],138.5%
same,Relative cell proliferation rate of NHDF cells,[3]; [12],138.2%
same,Relative cell proliferation rate of NHDF cells,[3]; [13],185.6%
same,Relative cell proliferation rate of NHDF cells,"[3]; Leu-removed medium + 0.8 mM amino acid, culture time 72 h, listed as trifluoroleucine, hydrochloride",~200%
same,Relative cell proliferation rate of PANC-1 cells,[4]; [11],77.1%
same,Relative cell proliferation rate of PANC-1 cells,[4]; [12],87.0%
same,Relative cell proliferation rate of PANC-1 cells,[4]; [13],75.5%
